In general, EC50 refers to the concentration that produces a half-maximal response.

SMILES strings stand for the structures.

Consider five compounds from PMC11684002 (Journal of medicinal chemistry, 2020).

One data set can be described thus: Photostationary states. It is filed as physicochemical. As to conditions: for PSS, % trans-isomer, dark: dark-adapted.
The target of data set [1] is T1, human PPARα ligand binding domain (Gal4 hybrid) (Homo sapiens, UniProt Q07869).
T1 sequence (Q07869 239-466 limits assumed): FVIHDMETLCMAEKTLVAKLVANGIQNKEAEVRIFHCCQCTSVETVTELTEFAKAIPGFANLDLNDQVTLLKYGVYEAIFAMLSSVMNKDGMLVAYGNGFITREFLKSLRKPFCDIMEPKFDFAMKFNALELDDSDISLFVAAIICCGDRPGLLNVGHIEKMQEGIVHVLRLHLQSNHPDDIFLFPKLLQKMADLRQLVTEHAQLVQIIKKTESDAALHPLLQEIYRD
In words: Gal4 hybrid reporter gene assay, PPARα. The settings on record: trans-isomer in the dark, HEK293T.

In data set [2] the test system is human PPAR response element (PPRE), endogenous PPARγ. In words: PPRE reporter gene assay in PPARγ expressing HepG2 cells. It is filed as cell-based. The settings on record: trans-isomer. On the technique in general: A reporter such as luciferase makes a cellular process visible.
Another data set concerns PPARγ. As to conditions: read-out: PPARγ agonist EC50; cited from earlier work.
[3] abbreviates: after 365 nm illumination, CDCl3.
[4] abbreviates: after 460 nm illumination, CDCl3.

With `O=C(c1ccccc1)c1ccccc1N[C@@H](Cc1ccc(/N=N/c2ccccc2)cc1)C(=O)O` [AzoGW1929, (S,E)-2-((2-benzoylphenyl)amino)-3-(4-(phenyldiazenyl)phenyl)propanoic acid], the “PSS, % trans-isomer, 365 nm” value in the data set “Photostationary states” (after 365 nm illumination for five minutes, MeOD-d4) stood at 67%. For the same compound, in “Photostationary states” (after 460 nm illumination for five minutes, MeOD-d4), the “PSS, % trans-isomer, 460 nm” value is 76%. In addition, the “PSS, % trans-isomer, dark” value in “Photostationary states” (MeOD-d4) was 95%.

For `O=C1NC(=O)C(Cc2ccc(/N=N/c3ccccc3)cc2)S1` (stereo not shown) [AzoRosi, (E)-5-(4-(phenyldiazenyl)benzyl)thiazolidine-2,4-dione], in the data set “Photostationary states” (setting [3]), the “PSS, % trans-isomer, 365 nm” value is listed as 4%. In addition, in the data set “Photostationary states” (setting [4]), the “PSS, % trans-isomer, 460 nm” value stood at 80%. In addition, the “PSS, % trans-isomer, dark” value in the data set “Photostationary states” (CDCl3) came out at 100%. For the same compound, in data set [1], the “PPARα activation at 10 μM” value came out at 8% activation at 10 μM.

For the compound `Cc1ccccc1-c1ccc(/N=N/c2ccc(CC3SC(=O)NC3=O)cc2)cc1` (stereo not shown) [AzoRosi-4, (E)-5-(4-((2′-methyl-[1,1′-biphenyl]-4-yl)diazenyl)benzyl)thiazolidine-2,4-dione], the “PPRE activation at 10 μM” value in data set [2] is given as “some PPRE activation was observed”. For the same compound, in the data set “Photostationary states” (setting [3]), the “PSS, % trans-isomer, 365 nm” value stood at 23%. Also, in the data set “Photostationary states” (setting [4]), the “PSS, % trans-isomer, 460 nm” value was found to be 83%. Also, in the data set “Photostationary states” (CDCl3), the “PSS, % trans-isomer, dark” value turned out to be 99%.

As to `O=C1NC(=S)NC(=O)C1=Cc1ccc(OCc2ccccc2)c(Cl)c1` [MDG548], the EC50 with PPARγ is 215 nM.

For the compound `CN(CCOc1ccc(CC2SC(=O)NC2=O)cc1)c1ccccn1` (stereo not shown) [Rosiglitazone], the EC50 with PPARγ is […].
